According to the NIST ThermoML archive (doi:10.1021/je7001368):

Experiment: mn = molality of the nth substance listed, in mol/kg
Conditions: 101 kPa, Liquid

O=C([O-])CC(O)(CC(=O)[O-])C(=O)[O-].[K+].[K+].[K+] [potassium citrate] + O
Conditions | mass density [kg/m3] | speed of sound [m/s]
288.15 K, m1 = 0.0185 | 1002.99 | 1470.8
288.15 K, m1 = 0.0304 | 1005.44 | 1473.4
288.15 K, m1 = 0.031 | 1005.55 | 1473.5
288.15 K, m1 = 0.0558 | 1010.5 | 1478.6
288.15 K, m1 = 0.0899 | 1017.35 | 1485.7
288.15 K, m1 = 0.1258 | 1024.33 | 1493.8
288.15 K, m1 = 0.1931 | 1037.25 | 1506.5
288.15 K, m1 = 0.2653 | 1050.77 | 1519.9
288.15 K, m1 = 0.3412 | 1064.51 | 1534.3
288.15 K, m1 = 0.4565 | 1084.71 | 1556.7
288.15 K, m1 = 0.5796 | 1105.19 | 1578.4
288.15 K, m1 = 0.7446 | 1131.73 | 1608.1
293.15 K, m1 = 0.0185 | 1002.05 | 1486.7
293.15 K, m1 = 0.0304 | 1004.5 | 1489.1
293.15 K, m1 = 0.031 | 1004.61 | 1489.3
293.15 K, m1 = 0.0558 | 1009.51 | 1494.3
293.15 K, m1 = 0.0899 | 1016.3 | 1501.1
293.15 K, m1 = 0.1258 | 1023.23 | 1509
293.15 K, m1 = 0.1931 | 1036.06 | 1521.2
293.15 K, m1 = 0.2653 | 1049.48 | 1534.2
293.15 K, m1 = 0.3412 | 1063.13 | 1548.1
293.15 K, m1 = 0.4565 | 1083.21 | 1569.7
293.15 K, m1 = 0.5796 | 1103.58 | 1590.6
293.15 K, m1 = 0.7446 | 1129.91 | 1619.4
298.15 K, m1 = 0.0185 | 1000.87 | 1500.8
298.15 K, m1 = 0.0304 | 1003.29 | 1503.2
298.15 K, m1 = 0.031 | 1003.4 | 1503.3
298.15 K, m1 = 0.0558 | 1008.27 | 1508.1
298.15 K, m1 = 0.0899 | 1015.02 | 1514.7
298.15 K, m1 = 0.1258 | 1021.9 | 1522.4
298.15 K, m1 = 0.1931 | 1034.64 | 1534.3
298.15 K, m1 = 0.2653 | 1047.99 | 1546.8
298.15 K, m1 = 0.3412 | 1061.56 | 1560.2
298.15 K, m1 = 0.4565 | 1081.54 | 1581.2
298.15 K, m1 = 0.5796 | 1101.81 | 1601.3
298.15 K, m1 = 0.7446 | 1128.11 | 1629.2
303.15 K, m1 = 0.0185 | 999.449 | 1513
303.15 K, m1 = 0.0304 | 1001.86 | 1515.4
303.15 K, m1 = 0.031 | 1001.97 | 1515.5
303.15 K, m1 = 0.0558 | 1006.81 | 1520.2
303.15 K, m1 = 0.0899 | 1013.52 | 1526.6
303.15 K, m1 = 0.1258 | 1020.35 | 1534.1
303.15 K, m1 = 0.1931 | 1033.03 | 1545.6
303.15 K, m1 = 0.2653 | 1046.31 | 1557.7
303.15 K, m1 = 0.3412 | 1059.82 | 1570.7
303.15 K, m1 = 0.4565 | 1079.71 | 1591.1
303.15 K, m1 = 0.5796 | 1099.9 | 1610.6
303.15 K, m1 = 0.7446 | 1126.1 | 1637.7
308.15 K, m1 = 0.0185 | 997.814 | 1523.6
308.15 K, m1 = 0.0304 | 1000.21 | 1525.9
308.15 K, m1 = 0.031 | 1000.32 | 1526.1
308.15 K, m1 = 0.0558 | 1005.14 | 1530.6
308.15 K, m1 = 0.0899 | 1011.81 | 1536.8
308.15 K, m1 = 0.1258 | 1018.62 | 1544.2
308.15 K, m1 = 0.1931 | 1031.24 | 1555.3
308.15 K, m1 = 0.2653 | 1044.46 | 1567.1
308.15 K, m1 = 0.3412 | 1057.91 | 1579.7
308.15 K, m1 = 0.4565 | 1077.72 | 1599.7
308.15 K, m1 = 0.5796 | 1097.85 | 1618.5
308.15 K, m1 = 0.7446 | 1123.97 | 1644.9
313.15 K, m1 = 0.0185 | 995.982 | 1532.7
313.15 K, m1 = 0.0304 | 998.37 | 1534.9
313.15 K, m1 = 0.031 | 998.478 | 1535
313.15 K, m1 = 0.0558 | 1003.28 | 1539.5
313.15 K, m1 = 0.0899 | 1009.92 | 1545.5
313.15 K, m1 = 0.1258 | 1016.7 | 1552.8
313.15 K, m1 = 0.1931 | 1029.28 | 1563.6
313.15 K, m1 = 0.2653 | 1042.44 | 1575
313.15 K, m1 = 0.3412 | 1055.86 | 1587.3
313.15 K, m1 = 0.4565 | 1075.6 | 1606.9
313.15 K, m1 = 0.5796 | 1095.67 | 1625.1
313.15 K, m1 = 0.7446 | 1121.72 | 1650.8
